Results: patent publication US10463658B2, “Method of inhibiting FLT3 kinase” (AROG Pharmaceuticals, LLC, priority 2013, dated 2019)
Positions count from the first letter of the chain named.

Legend:
[1] = target: T1, FLT3 D835Y (Homo sapiens, UniProt P36888, D835Y); assay: KINOMEscan KdElect competitive binding assay, FLT3 D835Y; settings: tosylate salt
T1 construct: host or cells: E. coli BL21-derived host (T7 phage) or HEK-293
T1 sequence (P36888 610-943 D835Y limits assumed): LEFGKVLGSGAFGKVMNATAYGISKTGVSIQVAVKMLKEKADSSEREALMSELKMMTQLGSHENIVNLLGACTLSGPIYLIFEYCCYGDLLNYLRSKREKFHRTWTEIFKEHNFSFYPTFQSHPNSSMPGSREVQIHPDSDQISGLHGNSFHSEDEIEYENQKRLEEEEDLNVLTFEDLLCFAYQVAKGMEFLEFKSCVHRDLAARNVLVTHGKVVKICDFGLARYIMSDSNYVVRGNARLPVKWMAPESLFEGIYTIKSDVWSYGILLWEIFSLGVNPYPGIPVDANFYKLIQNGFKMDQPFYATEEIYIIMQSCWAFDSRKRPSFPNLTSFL
Description: (§1) Competitive binding assay.
(§2) The lysates were then centrifuged and filtered.

[2] = target: T2, FLT3 R834Q (Homo sapiens, UniProt P36888, R834Q); assay: KINOMEscan KdElect competitive binding assay, FLT3 R834Q; settings: tosylate salt; read-out: Binding Constant (Kd), FLT3 R834Q
T2 construct: host or cells: E. coli BL21-derived host (T7 phage) or HEK-293
T2 sequence (P36888 610-943 R834Q limits assumed): T1 sequence (P36888 610-943 D835Y limits assumed) with R225Q, Y226D
Description: as §1, §2

[3] = target: T3, FLT3 (ITD, D835V) (Homo sapiens, UniProt P36888, D835V, form not given); assay: KINOMEscan KdElect competitive binding assay, dual mutant FLT3 (ITD, D835V); settings: tosylate salt; read-out: Kd, FLT3 (ITD, D835V) double mutant
T3 construct: fused on or other part: DNA tag / T7 phage display tag for qPCR detection
T3 sequence (P36888 1-993 D835V): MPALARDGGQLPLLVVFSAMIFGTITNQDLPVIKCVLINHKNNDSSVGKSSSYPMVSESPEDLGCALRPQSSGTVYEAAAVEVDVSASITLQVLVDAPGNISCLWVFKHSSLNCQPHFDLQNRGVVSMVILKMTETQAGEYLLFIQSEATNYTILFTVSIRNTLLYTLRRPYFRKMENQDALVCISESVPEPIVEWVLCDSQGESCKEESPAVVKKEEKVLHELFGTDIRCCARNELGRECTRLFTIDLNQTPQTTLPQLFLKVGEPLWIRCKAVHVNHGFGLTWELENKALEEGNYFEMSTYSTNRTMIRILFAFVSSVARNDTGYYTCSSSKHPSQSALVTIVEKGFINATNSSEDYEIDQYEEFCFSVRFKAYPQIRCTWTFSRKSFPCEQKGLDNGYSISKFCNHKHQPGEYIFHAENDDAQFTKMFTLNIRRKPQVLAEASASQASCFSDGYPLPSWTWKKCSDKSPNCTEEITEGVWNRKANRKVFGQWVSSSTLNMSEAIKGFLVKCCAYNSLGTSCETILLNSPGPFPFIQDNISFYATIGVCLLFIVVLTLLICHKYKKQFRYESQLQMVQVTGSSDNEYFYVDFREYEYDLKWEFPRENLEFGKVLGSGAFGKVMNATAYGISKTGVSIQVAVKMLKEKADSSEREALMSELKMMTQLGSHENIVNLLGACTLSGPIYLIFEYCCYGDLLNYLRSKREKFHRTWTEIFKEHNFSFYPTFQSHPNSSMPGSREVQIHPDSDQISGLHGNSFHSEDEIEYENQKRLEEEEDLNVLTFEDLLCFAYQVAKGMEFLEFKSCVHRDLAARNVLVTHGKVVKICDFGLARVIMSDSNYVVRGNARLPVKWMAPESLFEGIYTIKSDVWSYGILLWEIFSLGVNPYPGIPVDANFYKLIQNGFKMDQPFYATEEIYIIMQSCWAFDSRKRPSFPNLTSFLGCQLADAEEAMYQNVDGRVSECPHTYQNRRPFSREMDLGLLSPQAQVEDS
Description: as §1, §2

[4] = target: T4, FLT3 (ITD, F691I) (Homo sapiens, UniProt P36888); assay: KINOMEscan KdElect competitive binding assay, dual mutant FLT3 (ITD, F691I); settings: tosylate salt; read-out: Kd, FLT3 (ITD, F691I) double mutant
T4 construct: fused on or other part: DNA tag / T7 phage display tag for qPCR detection
Description: as §1, §2

Q: Which Kd [1] does the source give for `COCCOc1ccc2c(c1)ncn2-c1ccc2cccc(N3CCC(N)CC3)c2n1` [CP-673,451] here?
A: 0.1 nM

Q: What about the Kd [2] of the same compound?
A: 0.65 nM

Q: What about the Kd [3] of the same compound?
A: 0.015 nM

Q: And the Kd [4]?
A: 0.18 nM
